Laboratory results reported in patent publication US20220202801A1, “USE OF COMPOUND IN PREPARATION OF DRUG FOR TREATING ATHEROSCLEROSIS” (GenEros Biopharma Ltd., priority 2019, published 2022).

Experiments:
ICAM-1 = assay: Immunohistochemistry of aortic wall, ICAM-1; type: in vivo, mice; conditions: for aorta (ICAM-1) signal expression in blood vessels: IHC-P×400, single animal micrograph; for ICAM-1 average optical density: aortic wall
From the text: Methods: SPF grade C57BL/6 ApoE −/−model mice were provided by Guangdong Medical Experimental Animal Center, laboratory animal production license No. SOCK (Guangdong) 2013-0002. Laboratory animal quality certificate number: 44007200048196). Mice were half male and half female, aged 8 to 12 weeks, and 72 animals in total. After four weeks of housing in a SPF-level animal facility, animals with less body weights were disposed. A total of 64 animals were randomly divided into 8 groups, 8 in each group, fed with 10% high-fat food, and received with different treatments. Animals were observed and administered with the medicines by gavage once daily. The body weights were measured once a week and continued for 58 days. […] The test sample was dissolved in dimethyl sulfoxide solution and prepared with 30% PEG300.
After blood collection, the animals were sacrificed, and the aortic arch together with the heart and thoracic aorta were fixed with neutral formaldehyde and subject to pathological examination. The abdominal aorta was collected and quick-frozen in liquid nitrogen, and stored at −80° C.
c) Immunohistochemistry: The thoracic aorta was sliced and detected by immunohistochemistry for the expression of CD68, intercellular adhesion molecule-1 (ICAM-1), and vascular cell adhesion Molecule-1 (VCAM-1).

[1] = tested on: atherosclerosis model induced by high-fat diet in ApoE knockout mice; assay: Ratio of atherosclerotic plaque area to total inner wall area of the aorta (En-Face, oil red; Example 2); type: in vivo
From the text: Methods: A total of 130 SPF grade C57BL/6 ApoE −/− model male mice aged 8 weeks were purchased from Charles River Laboratories (Beijing, China) (animal license number: SCXK (Beijing) 2016-0001, animal qualification certificate No.: 11400700331337). After one week of acclimatization in a SPF-grade animal facility, the animals with less weights were discarded and the rest was randomly divided into 11 groups, with 8 animals in each group. Except for the healthy control group, the rest were fed with 10% high-fat food (the first day of the high-fat diet was recorded as D1). Starting from the 8th week of the high-fat diet, each group of animals was orally given solvents or corresponding drugs, and the volume of administration was 10 ml/kg, once a day for 8 weeks. Animals were observed and administered by gavage once a day and the body weight were measured once a week for 56 days. […] The store solution of the test samples was dissolved in dimethyl sulfoxide solution and prepared with 30% PEG300.
Immediately after blood was taken from the heart, it was perfused through the left ventricle with 20 ml of normal saline. After bloodletting, the heart and aorta (from the aortic arch to the iliac artery) were isolated. The isolated artery was cut longitudinally from the aortic arch to the iliac artery, fixed in 4% paraformaldehyde for 30 minutes, synchronized with 60% isopropanol for 10 minutes, stained in 60% oil red for 30 minutes, and washed by 60% isopropanol 3 times, 5 minutes each time. Finally, the colored aorta was washed with deionized water and photographed. The proportion of the red plaque area was measured by Image Pro Plus 6.0 (Media Cybernetics, MD, US). The heart samples were fixed in 4% paraformaldehyde solution overnight and then placed in sucrose solution for dehydration. Then, it was embedded with OCT (Sakura, Japan) under a stereo microscope and made into 7 μm frozen sections. After HE staining, the slices were used for routine pathological examination. The outflow tract images were collected under an optical microscope at 4* magnification, and 4*, 10*, 20* and 40* magnification eyepieces were used for high-quality morphological observation. The detection standard referred to the histological classification standard of human atherosclerosis disease.
Evaluate the effect of different therapeutic drugs by the ratio of the area of atherosclerotic plaque to the total area of the inner wall of the aortic vessel (En-Face)
We adopted the widely accepted standard for the severity of arteriosclerosis in animal models, and analyzed the area of all plaques on the inner wall of the aorta. […] FIGS. 46A and 46B are histograms of the ratios of plaque area on the inner wall of the aorta in each treatment group. The values in FIGS. 46A and 46B are the ratios of plaques to the total area of the inner wall in each group, and the error is standard error±SEM. The statistical significance analysis is as follows: ***P<0.001 compared with the normal control group; #P<0.05 compared with the vehicle group; ##P<0.01, ###P<0.001, compared with the vehicle group through one-way ANOVA Dunnett's test; & represents P<0.05, compared with the vehicle group by t test.

| SMILES | aorta (ICAM-1) signal expression in blood vessels (ICAM-1; 1 mg/kg) | aorta (ICAM-1) signal expression in blood vessels (ICAM-1; 2 mg/kg) | aorta (ICAM-1) signal expression in blood vessels (ICAM-1; 5 mg/kg) | ICAM-1 average optical density (ICAM-1; 1 mg/kg gavage QD) | ICAM-1 average optical density (ICAM-1; 2 mg/kg gavage QD, 2 mg/kg) | ICAM-1 average optical density (ICAM-1; 2 mg/kg gavage QD, listed as Nib2, 2 mg/kg) | ICAM-1 average optical density (ICAM-1; 2 mg/kg gavage QD, listed as sample B, 2 mg/kg) | ICAM-1 average optical density (ICAM-1; 5 mg/kg gavage QD) | Mean of Plaque Ratio (plaque area to total inner wall area of aorta) ([1]; 2 mpk PO QD 8 weeks, high-fat diet) [%] | symptoms of atherosclerosis under therapeutic intervention (mainly plaque area ratio) ([1]; different doses, Example 2) | aorta (ICAM-1) signal expression in blood vessels (ICAM-1; 10 mg/kg) | ICAM-1 average optical density (ICAM-1; 2 mg/kg gavage QD, listed as sample A, 2 mg/kg) | ICAM-1 average optical density (ICAM-1; 5 mg/kg gavage QD, 5 mg/kg) | ICAM-1 average optical density (ICAM-1; 5 mg/kg gavage QD, listed as Nib1, 5 mg/kg) | ICAM-1 average optical density (ICAM-1; 5 mg/kg gavage QD, listed as sample A, 5 mg/kg) | ICAM-1 average optical density (ICAM-1; 10 mg/kg gavage QD, 10 mg/kg) | ICAM-1 average optical density (ICAM-1; 10 mg/kg gavage QD, listed as sample A, 10 mg/kg) |
| --- | --- | --- | --- | --- | --- | --- | --- | --- | --- | --- | --- | --- | --- | --- | --- | --- | --- |
| O=C(N/N=C/c1coc2ccccc2c1=O)c1cccnc1 [Sample B] | low to medium | low to medium | low to medium | 2.44 ± 1.19 ×10^−2 | 1.31 ± 1.40 ×10^−2 | reduced expression | lower than the model control group | 3.98 ± 1.64 ×10^−2 | 11.22 | significantly alleviate the symptoms of atherosclerosis |  |  |  |  |  |  |  |
| O=c1[nH]c2ccccc2n1C1CCN(CCCC(c2ccc(F)cc2)c2ccc(F)cc2)CC1 [Sample A] |  | low to medium | low to medium |  | 2.11 ± 1.53 ×10^−2 |  |  |  |  |  | low to medium | lower than the model control group | 2.31 ± 1.16 ×10^−2 | reduced expression | lower than the model control group | 1.75 ± 1.46 ×10^−2 | lower than the model control group |
